Reference: patent US20100016247A1, “USING BUDDING YEAST TO SCREEN FOR INHIBITORS OF AURORA KINASES” (FLORIDA STATE UNIVERSITY RESEARCH FOUNDATION, priority 2008, published 2010)
Read-outs that look alike come from different tables or passages of the source.

Key:
[1] = tested on: ipl1-321 mutant yeast cells; experiment: Growth of ipl1-321 mutant yeast cultures by OD600; type: cell-based, Saccharomyces cerevisiae; conditions: 25° C.; for growth inhibition of ipl1-321 cells: 10 μg/ml, 24 hr, vs untreated control
Method: (§1) Wild-type and ipl1-321 mutant yeast strains are used for this purpose. […] After incubation at about 25° C. for about 24 hrs, the growth of the yeast cultures in the presence of tested compounds is determined by measuring OD600.

[2] = biological target: T1, purified recombinant human Aurora-B kinase (Homo sapiens, UniProt Q96GD4); experiment: In vitro Aurora-B kinase activity assay (ELISA kit); type: biochemical; conditions: for inhibitory effect on Aurora-B: same condition as FIG. 3A, data not shown
T1 construct: purchased Cell Signaling Technology
Method: To determine the inhibition of Aurora-B kinase activity by Jadomycin B, an Aurora-B kinase activity assay kit (Cell Signaling Technology) is used according to the manufacturer's instruction. Briefly, 100 ng of purified recombinant human Aurora-B kinase is added to a 100 μl reaction mixture containing 1× kinase buffer and 25 μM cold ATP in the presence of different concentrations of Jadomycin B (ranging from 10^−4 M to 10^−10 M). After incubation at room temperature for 15 min, biotinylated peptide substrate (Cell Signaling Technology) is added to each reaction mixture at a final concentration of 1.5 μM, and the mixtures are further incubated for 30 min. A parallel control experiment is performed under the same conditions without Jadomycin B. The reaction is stopped by addition of 50 μM EDTA (pH 8). The 25 μl reaction mixture is then transferred to a streptavidin-coated 96-well plate (PerkinElmer, Inc) and incubated at room temperature for 60 min. After washing three times with PBS/T, the […] (Ser10) antibody (Cell Signaling Technology) is added to the plate for further incubation at 37° C. for 120 min. After washing, FITC-labeled secondary antibody (Santa Cruz) is added. After incubation at room temperature for 30 min, the plate is finally washed five times, and the fluorescence signal is determined with BMG Polarstar Galaxy (Germany) at 535 nm. The inhibition ratio by Jadomycin B at each concentration is calculated according to the following equation: % Inhibition=100×(1−countstreated/countscontrol). The inhibition curve is then fitted by Originpro7.5 program and the IC50 value of Jadomycin B is determined.
To determine the mode of inhibition of Aurora-B by Jadomycin B, the kinase activity is also examined in the presence of different concentrations of ATP (25, 50, 75, 100, and 200 μM). The inhibition ratio of Aurora-B kinase activity by Jadomycin B at various concentrations is calculated as described above and the inhibition curve is fitted. The IC50 value of Jadomycin B at each ATP concentration is then determined and a linear fit is made with all five IC50 values. The Ki is determined from the intercept of the plot of [ATP] versus IC50 values (IC50=Ki/Km[ATP]+Ki).

A549 cells [3] = experiment: Cell growth assay (MTT, cell counting); type: cell-based, human; conditions: for growth inhibition by MTT assay: A549, 48 hours
Method: (§2) A549, Hela and MCF-7 cell lines are cultured in 96-well tissue culture plates at a cell density of 5,000 cells per well in RPMI-I640 or MEM containing 10% fetus bovine serum and 2 mM L-glutamine. After attachment overnight, the medium is replaced and cells are incubated with increasing concentrations of Jadomycin B or its two derivatives, Jadomycin S and T (ranging from 10^−4 M to 10^−8 M). After treatment for 48 hours, 3-(4,5-dimethylthiazol-2-yl)-2,5-diphenyltetrazolium bromide (MTT) assays are carried out in triplication. The concentration-viability curves are fitted and IC50 values are determined. Cells are also plated at a cell density of 10,000 cells per well in six-well tissue culture plates. After attachment overnight, cells are treated with 0, 5, or 10 μg/ml Jadomycin B for 96 hours. Cells are detached every 24 hr by trypsinization to count the cell number. All experiments are repeated three times.

Hela cells = experiment: Cell growth assay (MTT, cell counting); type: cell-based, human; conditions: for growth inhibition by MTT assay: Hela, 48 hours
Method: as §2

MCF-7 cells = experiment: Cell growth assay (MTT, cell counting); type: cell-based, human; conditions: for growth inhibition by MTT assay: MCF-7, 48 hours
Method: as §2

wild-type yeast cells = experiment: Growth of wild-type yeast cultures by OD600; type: cell-based, Saccharomyces cerevisiae; conditions: 25° C.
Method: as §1

A549 cells [4] = experiment: FACS analysis of apoptosis and cell cycle distribution; type: cell-based, human; conditions: 5 μg/ml
Method: A549 cells in exponential growth phase are treated with 0 or 5 μg/ml Jadomycin B for up to 48 hours. Cells collected at the indicated times are fixed and stained with Propidium Iodide (PI). FACS analysis is performed to determine the percentage of apoptotic cells and cell cycle distribution by using the EPICS XL flow cytometer and System II software.

A549 cells [5] = experiment: Hoechst 33342 staining, chromatin condensation and apoptotic body; type: cell-based, human; conditions: 5 μg/ml, 48 hours
Method: Hoechst 33342 is a fluorescence dye that can be embedded in DNA double helix and emit blue fluorescence when excited with UV light. Treated and untreated A549 cell samples with 5 μg/ml Jadomycin B for 48 hours are stained with 100 ng/ml Hoechst 33342 for 10 minutes in dark. Stained cells are visualized with a Nikon ECLIPSS TE2000-U fluorescence microscope (Japan) at 100× and 400× magnification. Apoptotic cells show brightly stained nuclei because of the chromosome condensation and the appeared apoptotic bodies.

[6] = tested on: phosphorylated histone H3 (Ser10) in A549 cells; experiment: Western blotting of phosphorylated histone H3 (Ser10); type: cell-based, human; conditions: 24 hr
Method: (§3) Cells are washed with cold PBS and whole-cell extracts are prepared with RIPA lysis buffer containing 60 μg/ml of PMSF. Equal amounts of protein (30 μg) are resolved with 15% SDS-PAGE. After transfer, the membranes are incubated overnight with primary antibodies (1:1000) against phosphorylated histone H3 (Ser10) (Cell Signaling Technology) and β-tubulin (Santa Cruz Biotechnology) at 4° C. The membranes are then incubated with HRP-conjugated goat anti-rabbit secondary antibody (Santa Cruz) at 1:200 followed by Chemiluminescence staining (Millipore).

[7] = tested on: phosphorylated histone H3 (Ser10) in Hela cells; experiment: as above; type: cell-based, human; conditions: 10 μg/ml, 24 hours
Method: as §3, with “A549 cells in the exponential growth phase are treated with 0, 1.25, 2.5, 5, 7.5, or 10 μg/ml Jadomycin B for 24 hours, while Hela and HepG2 cells are treated with 0 or 10 μg/ml of Jadomycin B. Cells” for “Cells”

[8] = tested on: phosphorylated histone H3 (Ser10) in HepG2 cells; experiment: as above; type: cell-based, human; conditions: HepG2, 10 μg/ml, 24 hours
Method: as §3, with “A549 cells in the exponential growth phase are treated with 0, 1.25, 2.5, 5, 7.5, or 10 μg/ml Jadomycin B for 24 hours, while Hela and HepG2 cells are treated with 0 or 10 μg/ml of Jadomycin B. Cells” for “Cells”

IM-9 cells = conditions: cited from earlier work
IM9/Bcl-2 cells = conditions: cited from earlier work
HepG2 cells = conditions: cited from earlier work
H460 cells = conditions: cited from earlier work

T1 sequence (Q96GD4 whole entry): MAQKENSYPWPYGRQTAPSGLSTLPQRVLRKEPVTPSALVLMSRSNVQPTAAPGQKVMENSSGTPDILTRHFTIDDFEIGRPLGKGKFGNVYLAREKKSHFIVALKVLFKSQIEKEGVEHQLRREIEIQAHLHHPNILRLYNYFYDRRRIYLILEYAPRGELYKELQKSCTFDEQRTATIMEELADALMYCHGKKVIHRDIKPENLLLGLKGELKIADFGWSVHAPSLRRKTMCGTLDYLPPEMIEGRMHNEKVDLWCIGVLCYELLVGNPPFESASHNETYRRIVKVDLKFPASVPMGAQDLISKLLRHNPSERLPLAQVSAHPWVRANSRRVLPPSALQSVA

Cc1cc(O)c2c(c1)[C@@H]1OC(=O)[C@H]([C@H](C)O)N1C1=C2C(=O)c2cccc(O[C@H]3C[C@@H](O)[C@@H](O)[C@H](C)O3)c2C1=O [Jadomycin T, reference compound]
growth inhibition of ipl1-321 cells [1]: neither shows inhibitory effect
inhibitory effect on Aurora-B [2]: no inhibitory activity is detected
growth inhibition by MTT assay (A549 cells [3]): inhibited growth
growth inhibition by MTT assay (Hela cells): inhibited growth
growth inhibition by MTT assay (MCF-7 cells): inhibited growth

CC[C@H](C)[C@H]1C(=O)O[C@H]2c3cc(C)cc(O)c3C3=C(C(=O)c4c(O[C@H]5C[C@@H](O)[C@@H](O)[C@H](C)O5)cccc4C3=O)N12 [Jadomycin B]
growth inhibition of ipl1-321 mutant cells ([1]; 5 μg/ml, 24 hours): 50%
growth inhibition of ipl1-321 cells [1]: almost completely
growth inhibition of wild-type cells (wild-type yeast cells; 5 μg/ml, 24 hours): little growth inhibition
growth inhibition of wild-type cells (wild-type yeast cells; 10 μg/ml, 24 hr): uninhibited
growth inhibition of wild-type cells (wild-type yeast cells; 100 μg/ml, 24 hours): 60%
IC50 ([2]; 25 μM ATP, ATP titration FIG. 3B, read-out: IC50 for Aurora-B at given ATP concentration): 12.5 µM
IC50 ([2]; 25 μM ATP, fitted inhibition curve FIG. 3A, read-out: IC50 for inhibition of Aurora-B kinase activity): 10.5 µM
IC50 ([2]; 50 μM ATP, read-out: IC50 for Aurora-B at given ATP concentration): 16.6 µM
IC50 ([2]; 75 μM ATP, read-out: IC50 for Aurora-B at given ATP concentration): 24.5 µM
IC50 ([2]; 100 μM ATP, read-out: IC50 for Aurora-B at given ATP concentration): 32.2 µM
IC50 ([2]; 200 μM ATP, read-out: IC50 for Aurora-B at given ATP concentration): 53.1 µM
Ki ([2]; from linear fit of IC50 versus [ATP]): 6.8 µM
mode of inhibition of Aurora-B kinase ([2]; with respect to ATP, 5 ATP concentrations): competitive inhibition
growth curve, sensitivity of cell line (A549 cells [3]; A549, 0, 5 or 10 μg/ml, 96 hours, cell counting): sensitive
growth inhibition by MTT assay (A549 cells [3]): most sensitive
growth curve, sensitivity of cell line (Hela cells; Hela, 0, 5 or 10 μg/ml, 96 hours, cell counting): sensitive
growth curve, sensitivity of cell line (MCF-7 cells; MCF-7, 0, 5 or 10 μg/ml, 96 hours, cell counting): sensitive
effect on cell cycle (A549 cells [4]): does not block cell cycle
increase of cells in S phase (A549 cells [4]): 2%
percentage of apoptotic cells, treated versus untreated (A549 cells [4]; 3 hr): almost no difference
portion of apoptotic cells (sub-G1) (A549 cells [4]; 12 hr): 17.8%
portion of apoptotic cells (sub-G1) (A549 cells [4]; 24 hr): 44%
portion of apoptotic cells (sub-G1) (A549 cells [4]; 48 hr): 71.7%
apoptosis by Hoechst 33342 staining (A549 cells [5]): more and more cells underwent apoptosis
reduction of H3 phosphorylation (grayscale scanning) ([6]; A549, 2 μg/ml): 28%
phosphorylated histone H3 band on western blot ([6]; A549, 10 μg/ml): do not express any detectable phosphorylated histone H3
reduction of H3 phosphorylation (grayscale scanning) ([6]; A549, 10 μg/ml): 73%
levels of phosphorylated histone H3 [7]: significant decrease
levels of phosphorylated histone H3 [8]: significant decrease
inhibition of proliferation (IM-9 cells): inhibits the proliferation
inhibition of proliferation (IM9/Bcl-2 cells): inhibits the proliferation
inhibition of proliferation (HepG2 cells): inhibits the proliferation
inhibition of proliferation (H460 cells): inhibits the proliferation

Cc1cc(O)c2c(c1)[C@@H]1OC(=O)[C@H](CO)N1C1=C2C(=O)c2cccc(O[C@H]3C[C@@H](O)[C@@H](O)[C@H](C)O3)c2C1=O [Jadomycin S, reference compound]
growth inhibition of ipl1-321 cells [1]: neither shows inhibitory effect
inhibitory effect on Aurora-B [2]: no inhibitory activity is detected
growth inhibition by MTT assay (A549 cells [3]): inhibited growth
growth inhibition by MTT assay (Hela cells): inhibited growth
growth inhibition by MTT assay (MCF-7 cells): inhibited growth
